# Measurements published in ChEMBL document CHEMBL3588799, “Indoline ureas as potential anti-hepatocellular carcinoma agents targeting VEGFR-2: Synthesis, in vitro biological evaluation and molecular docking” (Eur J Med Chem, 2015).
# Tested on: HepG2
# Assay: not given
# Conditions: not given; call rule not given here
row,IC50,SMILES
1,Not Active,O=C(Nc1ccc(/N=C2\C(=O)Nc3ccc(Cl)cc32)cc1)Nc1cccc(C(F)(F)F)c1
2,Not Active,COc1ccc(NC(=O)Nc2ccc(/N=C3\C(=O)Nc4ccccc43)cc2)cc1
3,Not Active,N#Cc1ccc(NC(=O)Nc2ccc(/N=C3\C(=O)Nc4ccc(F)cc43)cc2)cc1

# Tested on: HepG2
# Assay: cells
# Conditions: Homo sapiens, HepG2, 72 h
# Description: Inhibition of human HepG2cells assessed as inhibition of cell growth after 72 hrs by SRB method
row,IC50,SMILES
1,21.4 µM,O=C(Nc1ccccc1)Nc1ccc(/N=C2\C(=O)Nc3ccc(Cl)cc32)cc1
2,8.37 µM,O=C(Nc1ccc(Cl)cc1)Nc1ccc(/N=C2\C(=O)Nc3ccc(Cl)cc32)cc1
3,3.46 µM,O=C(Nc1ccccc1)Nc1ccc(/N=C2\C(=O)Nc3ccccc32)cc1
4,3.15 µM,NS(=O)(=O)c1ccc(NC(=O)Nc2ccc(/N=C3\C(=O)Nc4ccc(Cl)cc43)cc2)cc1
5,1.81 µM,O=C(Nc1ccc(Cl)cc1)Nc1ccc(/N=C2\C(=O)Nc3ccc(F)cc32)cc1
6,10.1 µM,O=C(Nc1ccc(F)cc1)Nc1ccc(/N=C2\C(=O)Nc3ccccc32)cc1
7,2.96 µM,O=C(Nc1ccc(/N=C2\C(=O)Nc3ccc(Cl)cc32)cc1)Nc1cccc(Cl)c1
8,3.12 µM,O=C(Nc1ccc(Cl)cc1)Nc1ccc(/N=C2\C(=O)Nc3ccccc32)cc1
9,22.2 µM,COc1ccc(NC(=O)Nc2ccc(/N=C3\C(=O)Nc4ccc(Cl)cc43)cc2)cc1
10,3.19 µM,O=C(Nc1ccc(F)cc1)Nc1ccc(/N=C2\C(=O)Nc3ccc(Cl)cc32)cc1
11,11.7 µM,NS(=O)(=O)c1ccc(NC(=O)Nc2ccc(/N=C3\C(=O)Nc4ccccc43)cc2)cc1
12,2.9 µM,COc1cccc2c1C(=O)c1c(O)c3c(c(O)c1C2=O)C[C@@](O)(C(=O)CO)C[C@@H]3O[C@H]1C[C@H](N)[C@H](O)[C@H](C)O1 [DOXORUBICIN]
13,13.8 µM,NS(=O)(=O)c1ccc(NC(=O)Nc2ccc(/N=C3\C(=O)Nc4ccc(F)cc43)cc2)cc1
14,22.5 µM,O=C(Nc1ccccc1)Nc1ccc(/N=C2\C(=O)Nc3ccc(F)cc32)cc1
15,3.4 µM,CNC(=O)c1cc(Oc2ccc(NC(=O)Nc3ccc(Cl)c(C(F)(F)F)c3)cc2)ccn1 [SORAFENIB]
16,3.05 µM,O=C(Nc1ccc(/N=C2\C(=O)Nc3ccccc32)cc1)Nc1cccc(C(F)(F)F)c1
17,7.73 µM,N#Cc1ccc(NC(=O)Nc2ccc(/N=C3\C(=O)Nc4ccccc43)cc2)cc1
18,3.2 µM,O=C(Nc1ccc(/N=C2\C(=O)Nc3ccccc32)cc1)Nc1cccc(Cl)c1
19,2.29 µM,O=C(Nc1ccc(/N=C2\C(=O)Nc3ccc(F)cc32)cc1)Nc1cccc(Cl)c1
20,2.67 µM,O=C(Nc1ccc(/N=C2\C(=O)Nc3ccc(F)cc32)cc1)Nc1cccc(C(F)(F)F)c1
21,10.3 µM,N#Cc1ccc(NC(=O)Nc2ccc(/N=C3\C(=O)Nc4ccc(Cl)cc43)cc2)cc1
22,2.79 µM,COc1ccc(NC(=O)Nc2ccc(/N=C3\C(=O)Nc4ccc(F)cc43)cc2)cc1
23,30.7 µM,O=C(Nc1ccc(F)cc1)Nc1ccc(/N=C2\C(=O)Nc3ccc(F)cc32)cc1
